Results published in ChEMBL document CHEMBL1629463, “In vitro anti-rotavirus activity of polyphenol compounds isolated from the roots of Glycyrrhiza uralensis” (Bioorg Med Chem, 2010).
Converted amounts (≈) assume the structure as drawn. The source made the active and inactive calls. The calls are words filed in the database; no cut-off is given here.

Key:
Porcine rotavirus [1] = experiment: Antiviral activity against KJ56-1 Porcine rotavirus G5P[7] infected in african green monkey TF-104 cells assessed as inhibition of viral mRNA synthesis at 40 to 50 uM after 18 hrs by RT-PCR analysis; assay type: functional, cell-based
Bovine rotavirus [2] = experiment: Antiviral activity against KJ56-1 Bovine rotavirus G8P[7] infected in african green monkey TF-104 cells assessed as inhibition of virus-induced cytopathic effect after 72 hrs; assay type: functional, cell-based; conditions: Rotavirus A, TF-104, 72 h
Porcine rotavirus [3] = experiment: Antiviral activity against KJ56-1 Porcine rotavirus G5P[7] infected in african green monkey TF-104 cells after 72 hrs by virucidal assay; assay type: functional, cell-based; conditions: Rotavirus A, TF-104, 72 h
[4] = Cytotoxicity against african green monkey TF-104 cells after 72 hrs by MTT assay; assay type: cell-based; conditions: chlorocebus aethiops
Porcine rotavirus [5] = experiment: Antiviral activity against KJ56-1 Porcine rotavirus G5P[7] infected in african green monkey TF-104 cells assessed as inhibition of virus-induced cytopathic effect after 72 hrs; assay type: functional, cell-based; conditions: TF-104, 72 h
[6] = Selectivity index, ratio of CC50 for african green monkey TF-104 cells to EC50 for cytopathic inhibition activity against KJ56-1 Povine rotavirus […]; assay type: toxicity, cell-based; conditions: read-out: Ratio CC50/EC50
Bovine rotavirus [7] = experiment: Antiviral activity against KJ56-1 Bovine rotavirus G8P[7] infected in african green monkey TF-104 cells assessed as inhibition of viral mRNA synthesis at 40 to 50 uM after 18 hrs by RT-PCR analysis; assay type: functional, cell-based
Bovine rotavirus [8] = experiment: Antiviral activity against KJ56-1 Bovine rotavirus G8P[7] in human RBC assessed as inhibition of virus-induced hemagglutinination after 1 hr; assay type: functional; conditions: Rotavirus A
Porcine rotavirus [9] = experiment: Antiviral activity against KJ56-1 Porcine rotavirus G5P[7] in human RBC assessed as inhibition of virus-induced hemagglutinination after 1 hr; assay type: functional
[10] = Selectivity index, ratio of CC50 for african green monkey TF-104 cells to EC50 for cytopathic inhibition activity against KJ56-1 Bovine rotavirus G8P[7]; assay type: toxicity, cell-based; conditions: read-out: Ratio CC50/EC50
[11] = Selectivity index, ratio of CC50 for african green monkey TF-104 cells to EC50 for KJ56-1 Bovine rotavirus G8P[7] by virucidal assay; assay type: toxicity, cell-based; conditions: read-out: Ratio CC50/EC50
[12] = Selectivity index, ratio of CC50 for african green monkey TF-104 cells to EC50 for virucidal activity against KJ56-1 Povine rotavirus […]; assay type: toxicity, cell-based; conditions: read-out: Ratio CC50/EC50
Bovine rotavirus [13] = experiment: Antiviral activity against KJ56-1 Bovine rotavirus G8P[7] infected in african green monkey TF-104 cells assessed as inhibition of viral replication at 30 uM after 24 hrs by immunofluorescence assay; assay type: functional, cell-based
Bovine rotavirus [14] = experiment: Antiviral activity against KJ56-1 Bovine rotavirus G8P[7] infected in african green monkey TF-104 cells after 72 hrs by virucidal assay; assay type: functional, cell-based; conditions: Rotavirus A, TF-104, 72 h
Porcine rotavirus [15] = experiment: Antiviral activity against KJ56-1 Porcine rotavirus G5P[7] infected in african green monkey TF-104 cells assessed as inhibition of viral replication at 30 uM after 24 hrs by immunofluorescence assay; assay type: functional, cell-based

Compound	inhibition (Porcine rotavirus [1])	EC50 (Bovine rotavirus [2]) [µM]	EC50 (Porcine rotavirus [3]) [µM]	CC50 at 72 h [4] [µM]	EC50 (Porcine rotavirus [5]) [µM]	selectivity ratio [6]	inhibition (Bovine rotavirus [7])	MIC (Bovine rotavirus [8]) [µM]	MIC (Porcine rotavirus [9])	selectivity ratio [10]	selectivity ratio [11]	selectivity ratio [12]	inhibition (Bovine rotavirus [13])	EC50 (Bovine rotavirus [14]) [µM]	inhibition (Porcine rotavirus [15])
COc1cc(O)ccc1C(=O)/C=C/c1ccc(O)cc1	Active	41.8	69.5	> 133	24	5.6	Active	17.2 (≈ 4.65 µg/mL)	inactive	> 3.2	–	–	–	–	–
O=c1c(-c2ccc(O)cc2)coc2cc(O)cc(O)c12 [GENISTEIN]	–	99.6	–	174	–	–	–	–	–	1.8	–	–	–	–	–
COc1c(CC=C(C)C)c(O)cc2c1C[C@H](c1ccc(O)cc1O)CO2 [GLYASPERIN C]	Active	12	18.7	42.8	12.1	3.6	Active	17.2 (≈ 6.13 µg/mL)	17.2 µM (≈ 6.13 µg/mL)	3.6	2.9	2.3	Active	14.7	Active
COc1cc2c(c(OC)c1CC=C(C)C)C[C@H](c1ccc(O)cc1O)CO2 [GLYASPERIN D]	Active	42	–	68.1	–	–	Active	17.2 (≈ 6.37 µg/mL)	17.2 µM (≈ 6.37 µg/mL)	1.6	5.7	–	Active	17.6	inactive
COc1cc2oc(=O)c(-c3ccc(O)cc3O)cc2c(OC)c1CC=C(C)C [GLYCYRIN]	–	> 100	–	> 133	–	–	–	17.2 (≈ 6.58 µg/mL)	17.2 µM (≈ 6.58 µg/mL)	–	> 1.5	–	–	88.1	–
COc1c(CC=C(C)C)c(O)cc2oc(-c3ccc(O)cc3O)cc12 [LICOCOUMARONE]	Active	22.3	26.1	54.5	43.6	1.3	Active	17.2 (≈ 5.85 µg/mL)	17.2 µM (≈ 5.85 µg/mL)	2.5	1.4	2.1	–	37.8	–
CC(C)=CCc1c(O)cc2oc(-c3ccc(O)cc3)c(O)c(=O)c2c1O [LICOFLAVONOL]	Active	25.9	36.8	85.3	–	–	Active	17.2 (≈ 6.09 µg/mL)	17.2 µM (≈ 6.09 µg/mL)	3.3	5.5	2.3	Active	15.5	inactive
